Experimental findings from patent publication US11578013B2, “Nitrification inhibitors” (Lincoln University, priority 2020, dated 2023) are described below.

In brackets after ≈: the same amount, converted by molar mass.

In one assay the test system is N. europaea cells. Nature of the assay: Oxygen consumption rate of N. europaea whole cells (Oroboros oxygraph). The conditions noted are these: 25° C. Format: cell-based, Nitrosomonas europaea. On the procedure:
To begin to understand the mechanism of action of 4-Ethynylanisole the oxygen consumption rate was measured utilising an Oroborus oxygraphy-2k (Oroboros Instruments). Prior to the experiment, N. europaea cells were grown in ATCC 2265 medium for four days. After which time whole cells of N. europaea were washed extensively as previously described and re-suspended in ATCC 2265 wash buffer (no ammonium) to an OD600 of 0.25. Prior to each experiment being initiated by the addition of a metabolizable energy source (ammonium or hydroxyl amine), the oxygen concentration in the assay suspension (2 ml of cells at OD600 of 0.25) was equilibrated for 2-3 min with air until a stable signal was obtained. Under normal experimental conditions this typically yielded an oxygen concentration of approximately 220 μM. After the oxygen concentration had stabilised in the Oroborus oxygraphy-2k reaction cell, rubber stoppers were subsequently inserted to enclose the system. To initiate respiration, ammonium sulphate (12.5 mM) or hydroxyl amine (6.25 mM) were injected directly into washed cell suspension of N. europaea. […] All measurements were made at 25° C. with stirring at 750 rpm and a data recording interval of 1 s^−1.

For the next assay, the system named is Nitrosomonas europaea. As to the kind of experiment: In vitro screening of nitrite production by Nitrosomonas europaea. Format: cell-based. As for the experimental part:
The phenotypic screening involved assessing the nitrification inhibition potency of the selected 5000 compounds against a key ammonia oxidizing bacterium responsible for ammonia oxidation in the soil, Nitrosomonas europaea, in 96-well microtiter plates. N. europaea cells were grown in the presence of an ammonium source, and the potential of putative nitrification inhibitors to inhibit the production of nitrite (NO2) was measured relative to untreated cells. […] Study 1-14

The subject of assay [1] is nitrification in the soil. Nature of the assay: Soil column study with static gas chambers (Study 2-14): nitrate-N and N2O emissions. On the procedure: To determine the effect of treating the soil with 4-Ethynylanisole on nitrification rate and nitrous oxide emissions, soil column studies with static gas chambers were conducted. The experiment was conducted in cylindrical PVC containers (Diameter=186 mm, Height=240 mm). The containers were filled with soil to half of the container's height (120 mm), leaving 120 mm headspace. The soil was Templeton sandy loam collected from Lincoln University Research Dairy Farm. It was screened using a 5 mm sieve and air-dried to the required moisture level and packed to bulk density of 1 g/cm3.
(§1) The experiment was conducted under controlled conditions. The temperature of the soil columns were maintained at around 12° C. by using a water bath to control the temperature.
The treatments included Control (Water), Control (animal urine), Control (urine+DMSO), Control (urine+DCD at 10 kg/ha) and urine+4-Ethynylanisole (10 kg/ha) in DMSO. Synthetic cow urine was applied at 700 kg N/ha (comprising about 87% urea-N and 13% glycine-N), and 4-Ethynylanisole was applied at 10 kg/ha. There were two sets of cores for each treatment, one set were fitted with static gas chambers with removable lids for nitrous oxide sampling, and the other set used for soil sampling. The urine was sprayed to the surface of the soil simulating urine deposition by a grazing animal; DMSO, or DCD or 4-Ethynylanisole mixed with DMSO was also sprayed onto the urine treated soils to simulate the treatment of urine patches. Nitrous oxide gas measurements followed these treatments—as is detailed further below.
For the soil columns that were set up for taking soil samples for analysis of mineral nitrogen, the different treatments were mixed with the soil for soil sampling. Soil moisture was adjusted to 100% field capacity (FC) and maintained between 80 and 100% FC over the duration of the experiment.
Nitrous oxide (N2O) gas sampling was conducted twice a week using the standard procedure (Di et al., 2007). Vials were evacuated prior to sampling. Three gas samples were taken with 20 minute intervals between each sampling. Sampling frequency was reduced to once a week when N2O fluxes decreased in intensity.
Soil sampling was conducted on Day 1, 7, 14, 30, and 60. The soil samples were analysed for mineral nitrogen.

Assay [2] has as its system nitrification in the soil. Nature of the assay: Soil column study at low rates (Study 3-14): nitrate-N. Particulars: day 60. As for the experimental part: To determine the effect of treating the soil with 4-Ethynylanisole at low rates, e.g. at 1 kg/ha and 2 kg/ha, soil column studies were conducted. The experiment was conducted in cylindrical PVC containers (Diameter=186 mm, Height=240 mm). The containers were filled with soil to half of the container's height (120 mm), leaving 120 mm headspace. The soil was Templeton sandy loam collected from Lincoln University Research Dairy Farm. It was screened using a 5 mm sieve and air-dried to the required moisture level and packed to bulk density of 1 g/cm3.
as §1
The treatments included Control (Water), Control (animal urine), Control (urine+DMSO), Control (Urine+DCD at 10 kg/ha), Urine+4-Ethynylanisole (at 1 kg/ha) in DMSO, and Urine+4-Ethynylanisole (at 2 kg/ha) in DMSO. Synthetic cow urine was applied at 700 kg N/ha (comprising about 87% urea-N and 13% glycine-N), and 4-Ethynylanisole was applied at 1 or 2 kg/ha equivalent. The treatments were mixed with the soil. Soil moisture was adjusted to 100% field capacity (FC) and maintained between 80 and 100% FC over the duration of the experiment. Soil sampling was conducted on Days 1, 7, 14, 30, and 60. The soil samples were analysed for mineral N.

In a further assay the test system is nitrification. As to the kind of experiment: Table 1 summary: compounds found to work or not work as nitrification inhibitors, Inhib(%). Details: concentration or dose not given beside the values. The conditions noted are these: test and rate not given. As for the experimental part:
The phenotypic screening involved assessing the nitrification inhibition potency of the selected 5000 compounds against a key ammonia oxidizing bacterium responsible for ammonia oxidation in the soil, Nitrosomonas europaea, in 96-well microtiter plates. N. europaea cells were grown in the presence of an ammonium source, and the potential of putative nitrification inhibitors to inhibit the production of nitrite (NO2) was measured relative to untreated cells.
A summary of selected compounds initially found to either work or not work as nitrification inhibitors is detailed in Table 1 below.

The term IC50 denotes the concentration that gives 50% inhibition. Consider `C#Cc1ccc(OC)cc1` [4-Ethynylanisole, 1-ethynyl-4-methoxybenzene], for which, in the assay with N. europaea cells (ammonium sulphate 12.5 mM), the ammonium-driven oxygen consumption result is “reduced to zero”. The “hydroxylamine (H3NO)-driven oxygen consumption” value in the assay on N. europaea cells (hydroxyl amine 6.25 mM) was “not affected”. Further, in the assay on Nitrosomonas europaea (1.56 μM to 400 μM), the “rate of nitrite production (OD519 nm)” value is recorded as “significantly reduced”. For the same compound, in the assay on Nitrosomonas europaea (Nitrosomonas europaea, read-out: IC50 (nitrite production reduced by half)), the half-maximal inhibitory concentration (IC50) is 2400 nM. The MIC with Nitrosomonas europaea (Nitrosomonas europaea, read-out: Minimum Inhibitory Concentration (MIC) of nitrite production) lay in the range of 25 to 50 µM (≈ 3.3 to 6.61 µg/mL). The “N2O—N emissions lower than urine alone control” value in assay [1] (10 kg/ha sprayed to soil surface, soil column) was determined as 93.3%. Moreover, the “soil nitrate-N concentration compared with urine control” value in assay [1] (10 kg/ha, day 60) is recorded as “significantly lower nitrate-N concentrations”; in assay [2] (1 or 2 kg/ha), “significantly lower nitrate-N concentrations”. In addition, the “nitrous oxide reduction compared with DCD” value in assay [1] (both at 10 kg/ha) is “much greater than that by DCD”. In addition, the “inhibiting nitrate production compared with DCD” value in assay [1] (both at 10 kg/ha, day 60) is recorded as “much more potent than DCD”; in assay [2] (1 or 2 kg/ha vs DCD at 10 kg/ha), “much more potent than DCD”. Besides, the “Inhib(%)” value with nitrification worked out at 100%.
